SMILES strings stand for the structures. Where a name gives a salt, the structure may show the parent alone. Read-outs that look alike come from different tables or passages of the source.

The target in one experiment is T1, 5HT1A receptors (Canis lupus familiaris, UniProt Q6XXX9).
T1 sequence (Q6XXX9 1-423): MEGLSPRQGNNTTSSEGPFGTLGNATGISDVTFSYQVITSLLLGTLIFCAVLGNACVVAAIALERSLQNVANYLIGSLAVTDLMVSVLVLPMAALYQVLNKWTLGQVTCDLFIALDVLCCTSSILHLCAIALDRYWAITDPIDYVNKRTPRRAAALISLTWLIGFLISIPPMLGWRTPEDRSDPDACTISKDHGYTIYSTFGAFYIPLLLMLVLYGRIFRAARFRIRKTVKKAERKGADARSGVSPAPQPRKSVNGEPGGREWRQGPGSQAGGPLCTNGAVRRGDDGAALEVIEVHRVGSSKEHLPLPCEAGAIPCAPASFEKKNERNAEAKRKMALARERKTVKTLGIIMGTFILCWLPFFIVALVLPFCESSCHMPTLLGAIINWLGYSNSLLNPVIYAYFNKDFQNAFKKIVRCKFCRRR
Nature of the experiment: biochemical. In kind it is binding, dog.

The next experiment has as its system mice. Nature of the experiment: exploratory light/dark method in mice (two-compartment light-dark activity box). The conditions noted are these: for minimal effective dose: Mus musculus, read-out: Light/Dark: minimum effective dose; for Light/Dark: % time spent in lit area: at minimum effective dose. Type of experiment: in vivo.
The mark [1] stands for this setting: competitive binding vs [^3 H]8-OH-DPAT, dog hippocampus membrane, buspirone value is an average, read-out: 5HT1A IC50.

Description for 5HT1A receptors: (§1) Anxiolytic properties were determined using an in vitro assay in which competive binding with the 5-HT1A specific agonist, [^3 H]8-hydroxy-2-(di-n-propylamino)tetralin(8-OH-DPAT) to 5HT1A receptors in the dog hippocampus membrane preparation is measured [Hall et al, J. Neurochem. […] Several compounds were also tested in mice is the exploratory light/dark method as described by Young and Johnson, Soc. […] 1988, 14, 207 in which the exploratory behavior of a mouse is a two-compartment light-dark activity box is monitored electrically and behavioral variables such as time spent in the lit versus dark compartments, rearings in either of the two compartments, number of transitions between the two compartments and other exploratory behavioral variables are recorded.
Description for mice: as §1

One may read the IC50 as the concentration that inhibits the measured activity by half. `O=C1OC(CCCCN2CCN(c3ncccn3)CC2)CN1c1ccccc1` (stereo not drawn) [Example 15, 3-Phenyl-5-[4-[4-(2-pyrimidinyl)-1-piperazinyl]butyl]-2-oxazolidinone]: the IC50 at 5HT1A receptors (setting [1]) turned out to be 29 nM.
As to `CN1CC(CCCCN2CCN(c3ccccc3O)CC2)OC1=O` (stereo not drawn) [Example 11, 5-[4-[4-(2-Hydroxyphenyl)-1-piperazinyl]butyl]-3-methyl-2-oxazolidinone], the IC50 on 5HT1A receptors (setting [1]) is 40 nM.
In the case of `O=C1CC2(CCCC2)CC(=O)N1CCCCN1CCN(c2ncccn2)CC1` [Buspirone, buspirone, reference compound], the minimal effective dose in the experiment on mice (ip) and in the experiment with mice (po) was 5.62 mg/kg in each case. Also, the “Light/Dark: % time spent in lit area” value in the experiment with mice (mice, IP) is listed as 51%; with mice (mice, PO) it was 54%. The same compound gave an IC50 against 5HT1A receptors of 13.2 nM.
On to `O=C1OC(CCCCN2CCN(c3ccccn3)CC2)CN1c1ccccc1` (stereo not drawn) [Example 14, 3-Phenyl-5-[4-[4-(2-pyridinyl)-1-piperazinyl]butyl]-2-oxazolidinone], for which the IC50 on 5HT1A receptors (setting [1]) was 7.7 nM.
Consider `O=C1OC(CCCN2CCN(c3ccccc3)CC2)CN1c1ccccc1` (stereo not drawn) [Example 22], for which, at 5HT1A receptors (setting [1]), the IC50 was determined as 50 nM.
For `O=C1OC(CCCN2CCN(c3ccccn3)CC2)CN1c1ccccc1` (stereo not drawn) [Example 19, 3-Phenyl-5-[3-[4-(2-pyridinyl)-1-piperazinyl]propyl]-2-oxazolidinone], at 5HT1A receptors (setting [1]), the IC50 was determined as 57 nM.
Consider `COc1ccccc1N1CCN(CCCC2CN(c3ccccc3)C(=O)O2)CC1` (stereo not drawn) [Example 23, 5-[3-[4-(2-Methoxyphenyl)-1-piperazinyl]propyl]-3-phenyl-2-oxazolidinone hydrochloride hydrate (1:2)], for which the concentration for half-maximal inhibition (IC50) on 5HT1A receptors (setting [1]) amounted to 11 nM.
Regarding `CCOc1ccccc1N1CCN(CCCCC2CN(c3ccccc3)C(=O)O2)CC1` (stereo not drawn) [Example 18, 5-[4-[4-(2-Ethoxyphenyl)-1-piperazinyl]butyl]-3-phenyl-2-oxazolidinone hydrochloride hydrate (2:4:1)], the half-inhibitory concentration (IC50) on 5HT1A receptors (setting [1]) was determined as 2 nM.
As to `COc1ccccc1N1CCN(CCCCC2CN(C)C(=O)O2)CC1.Cl.Cl` (stereo not drawn) [Example 3, 5-[4-[4-(2-Methoxyphenyl)-1-piperazinyl]butyl]-3-methyl-2-oxazolidinone dihydrochloride], in the experiment with mice (mice, IP), the minimal effective dose is 3.16 mg/kg and the “Light/Dark: % time spent in lit area” value is on record as 53%. The half-inhibitory concentration (IC50) at 5HT1A receptors (setting [1]) worked out at 15 nM.
For the compound `CCOc1ccccc1N1CCN(CCCCC2CN(C)C(=O)O2)CC1` (stereo not drawn) [Example 9, 5-[4-[4-(2-Ethoxyphenyl)-1-piperazinyl]butyl]-3-methyl-2-oxazolidinone dihydrochloride], the IC50 at 5HT1A receptors (setting [1]) turned out to be 16 nM.
Consider `CCOc1ccccc1N1CCN(CCCC2CN(c3ccccc3)C(=O)O2)CC1` (stereo not drawn) [Example 21, 5-[3-[4-(2-Ethoxyphenyl)-1-piperazinyl]propyl]-3-phenyl-2-oxazolidinone hydrochloride hydrate (2:4:1)], for which the IC50 at 5HT1A receptors (setting [1]) came to 18 nM.
Regarding `COc1ccccc1N1CCN(CCCCC2CN(c3ccccc3)C(=O)O2)CC1` (stereo not drawn) [Example 13, 5-[4-[4-(2-Methoxyphenyl)-1-piperazinyl]butyl]-3-phenyl-2-oxazolidinone hydrochloride hydrate (2:2:1)], on 5HT1A receptors (setting [1]), the IC50 is 2.2 nM.
For the compound `O=C1OC(CCCN2CCN(c3ncccn3)CC2)CN1c1ccccc1` (stereo not drawn) [Example 20, 3-Phenyl-5-[3-[4-(2-pyrimidinyl)-1-piperazinyl]propyl]2-oxazolidinone], at 5HT1A receptors (setting [1]), the IC50 worked out at 170 nM.
As to `O=C1OC(CCCCN2CCN(c3ccccc3)CC2)CN1c1ccccc1` (stereo not drawn) [Example 16, 3-Phenyl-5-[4-(4-phenyl-1-piperazinyl)butyl]-2-oxazolidinone], the IC50 on 5HT1A receptors (setting [1]) stood at 8.2 nM.
For the compound `CN1CC(CCCCN2CCN(c3ccccn3)CC2)OC1=O` (stereo not drawn) [Example 2, 3-Methyl-5-[4-[4-(2-pyridinyl)-1-piperazinyl]butyl]-2-oxazolidinone], in the experiment with mice (mice, IP), the minimal effective dose worked out at 3.16 mg/kg and the “Light/Dark: % time spent in lit area” value is recorded as 53%. Further, the 50% inhibitory concentration (IC50) on 5HT1A receptors (setting [1]) turned out to be 61 nM.
Take `C=CCOc1ccccc1N1CCN(CCCCC2CN(C)C(=O)O2)CC1` (stereo not drawn) [Example 12, 8-methyl-5-[4-[4-[2(2-propenyloxy)phenyl]-1-piperazinyl]butyl]-2-oxazolidinone hydrochloride hydrate (2:4:1)]: in the experiment on mice (mice, IP), the minimal effective dose worked out at 1 mg/kg and the “Light/Dark: % time spent in lit area” value turned out to be 66%. Moreover, the concentration for half-maximal inhibition (IC50) on 5HT1A receptors (setting [1]) was found to be 20 nM.
In the case of `O=C1OC(CCCCN2CCN(c3ccccc3O)CC2)CN1c1ccccc1` (stereo not drawn) [Example 17, 5-[4-[4-(2-hydroxyphenyl)-1-piperazinyl]butyl]-3-phenyl-2-oxazolidinone], the 50% inhibitory concentration (IC50) on 5HT1A receptors (setting [1]) is 15 nM.
On to `CCOc1ccccc1N1CCN(CCCC2CN(C)C(=O)O2)CC1` (stereo not drawn) [Example 8, 5-[3-[4-(2-Ethoxyphenyl)-1-piperazinyl]propyl]-3-methyl-2-oxazolidinone], for which the IC50 on 5HT1A receptors (setting [1]) was determined as 22 nM.
Take `CN1CC(CCCCN2CCN(c3ncccn3)CC2)OC1=O` (stereo not drawn) [Example 4, 3-Methyl-5-[4-[4-(2-pyrimidinyl)-1-piperazinyl]butyl]-2-oxazolidinone]: the IC50 at 5HT1A receptors (setting [1]) came out at 190 nM.
`CN1CC(CCCCN2CCN(c3ccccc3)CC2)OC1=O` (stereo not drawn) [Example 1, 3-Methyl-5-[4-(4-phenyl-1-piperazinyl)butyl]-2-oxazolidinone]: in the experiment with mice (mice, IP), the minimal effective dose came to 10 mg/kg and the “Light/Dark: % time spent in lit area” value turned out to be 56%. Moreover, the IC50 at 5HT1A receptors (setting [1]) was 59 nM.
As to `CN1CC(CCCN2CCN(c3ncccn3)CC2)OC1=O` (stereo not drawn) [Example 7, 3-Methyl-5-[3-[4-(2-pyrimidinyl)-1-piperazinyl]propyl]-2-oxazolidinone], on 5HT1A receptors (setting [1]), the IC50 stood at 510 nM.
On to `CN1CC(CCCN2CCN(c3ccccn3)CC2)OC1=O` (stereo not drawn) [Example 6, 3-Methyl-5-[3-[4-(2-pyridinyl)-1-piperazinyl]propyl]-2-oxazolidinone hydrochloride hydrate (2:4:1)], for which the IC50 on 5HT1A receptors (setting [1]) turned out to be 110 nM.
Turning to `COc1ccccc1N1CCN(CCCC2CN(C)C(=O)O2)CC1` (stereo not drawn) [Example 5, 5-[3-[4-(2-Methoxyphenyl)-1-piperazinyl]propyl]-3-methyl-2-oxazolidinone hydrochloride hydrate (2:2:3)], the IC50 at 5HT1A receptors (setting [1]) is 29 nM.
Same read-out and setting: the figure for `CN1CC(CCCN2CCN(c3ccccc3O)CC2)OC1=O` (stereo not drawn) [Example 10, 5-[3-[4-(2-hydroxyphenyl)-1-piperazinyl]propyl]-3-methyl-2-oxazolidinone] is 110 nM.
